Assays:
ITK = target: T1, ITK (Homo sapiens, UniProt Q08881); test: Inhibitory activity against ITK (ADP-Glo + ITK Kinase enzyme system kit); selectivity BTK vs. ITK; type: biochemical; details: for IC50: ITK enzyme 0.4 ng/uL, ATP 25 uM, luminescence, duplicate; for Selectivity (based on IC50): selectivity for the inhibitory activity of BTK vs. ITK, Equation 1
T1 construct: purchased Promega Corporation
T1 sequence (Q08881 1-620): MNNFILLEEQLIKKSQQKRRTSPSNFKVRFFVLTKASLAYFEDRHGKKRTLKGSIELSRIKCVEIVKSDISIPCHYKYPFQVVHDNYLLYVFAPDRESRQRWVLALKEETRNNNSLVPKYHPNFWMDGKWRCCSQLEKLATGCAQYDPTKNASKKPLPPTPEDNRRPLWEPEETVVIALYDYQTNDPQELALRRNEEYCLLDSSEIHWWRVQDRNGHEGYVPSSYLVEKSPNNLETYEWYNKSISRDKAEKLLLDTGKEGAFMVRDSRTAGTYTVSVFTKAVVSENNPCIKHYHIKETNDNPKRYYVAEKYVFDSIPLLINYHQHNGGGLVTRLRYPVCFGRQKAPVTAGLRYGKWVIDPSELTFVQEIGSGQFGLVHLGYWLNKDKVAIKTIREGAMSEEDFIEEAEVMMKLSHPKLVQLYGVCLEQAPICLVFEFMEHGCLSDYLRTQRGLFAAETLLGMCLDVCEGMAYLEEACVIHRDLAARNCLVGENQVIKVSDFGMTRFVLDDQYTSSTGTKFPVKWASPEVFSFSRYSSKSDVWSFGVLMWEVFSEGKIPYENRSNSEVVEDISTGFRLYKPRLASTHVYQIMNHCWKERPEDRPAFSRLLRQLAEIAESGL

BTK = BTK (Homo sapiens, UniProt Q06187); test: Inhibitory activity against BTK (ADP-Glo + BTK Kinase enzyme system kit)
Sequence of BTK (Q06187 whole entry): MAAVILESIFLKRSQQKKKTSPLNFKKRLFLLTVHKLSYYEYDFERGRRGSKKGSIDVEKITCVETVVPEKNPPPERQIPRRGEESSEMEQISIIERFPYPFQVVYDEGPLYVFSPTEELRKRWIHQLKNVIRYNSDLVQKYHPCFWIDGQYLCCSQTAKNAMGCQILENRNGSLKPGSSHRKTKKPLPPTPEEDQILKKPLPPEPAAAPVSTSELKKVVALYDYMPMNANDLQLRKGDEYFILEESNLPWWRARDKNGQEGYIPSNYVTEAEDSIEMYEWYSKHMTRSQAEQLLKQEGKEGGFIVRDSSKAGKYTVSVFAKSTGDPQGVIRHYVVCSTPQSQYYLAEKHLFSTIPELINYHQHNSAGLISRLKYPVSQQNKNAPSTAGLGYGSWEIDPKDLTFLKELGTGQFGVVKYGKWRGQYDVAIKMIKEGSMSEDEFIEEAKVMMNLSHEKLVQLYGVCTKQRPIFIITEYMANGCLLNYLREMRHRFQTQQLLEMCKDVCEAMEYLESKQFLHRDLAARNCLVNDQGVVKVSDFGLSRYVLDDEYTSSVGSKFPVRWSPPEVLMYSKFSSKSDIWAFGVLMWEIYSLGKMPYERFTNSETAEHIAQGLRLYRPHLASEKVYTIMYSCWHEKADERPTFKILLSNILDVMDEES

Row | IC50 (ITK) [nM] | Selectivity (based on IC50) (ITK) | IC50 (BTK) [nM] | Structure (SMILES)
1 | 32.1 | 26.8 | 1.2 | C=CC(=O)N1C[C@@H]2C[C@H]1[C@@H](n1nc(-c3ccc(C(=O)Nc4ccccn4)cc3Cl)c3c(N)ncnc31)C2 [Ex. 80, 4-(1-((1S,4R,6S)-2-acryloyl-2-azabicyclo[2.2.1]heptan-6-yl)-4-amino-1H-pyrazolo[3,4-d]pyrimidin-3-yl)-3-chloro-N-(pyridin-2-yl)benzamide]
2 | > 500 | >142.9 | 3.5 | C=CC(=O)N1CC2CC1C(n1nc(-c3ccc(C(=O)Nc4ccccn4)cc3)c3c(N)ncnc31)C2 (stereo not drawn) [Ex. 49, 4-(1-(2-acryloyl-2-azabicyclo[2.2.1]heptan-6-yl)-4-amino-1H-pyrazolo[3,4-d]pyrimidin-3-yl)-N-(pyridin-2-yl)benzamide]
3 | > 1000 | >370.3 | 2.7 | C=CC(=O)N1CC2CC1C(n1nc(-c3ccc(C(=O)Nc4cnccn4)cc3)c3c(N)ncnc31)C2 (stereo not drawn) [Ex. 53, 4-(1-(2-acryloyl-2-azabicyclo[2.2.1]heptan-6-yl)-4-amino-1H-pyrazolo[3,4-d]pyrimidin-3-yl)-N-(pyrazin-2-yl)benzamide]
4 | > 200 | >200 | 1 | C=CC(=O)N1C[C@@H]2C[C@H]1[C@@H](n1nc(-c3ccc(C(=O)Nc4ccccn4)cc3OC)c3c(N)ncnc31)C2 [Ex. 81, 4-(1-((1S,4R,6S)-2-acryloyl-2-azabicyclo[2.2.1]heptan-6-yl)-4-amino-1H-pyrazolo[3,4-d]pyrimidin-3-yl)-3-methoxy-N-(pyridin-2-yl)benzamide]
5 | 71.5 | 44.7 | 1.6 | C=CC(=O)N1CC2CC1C(n1nc(-c3ccc(C(=O)Nc4ccccn4)cc3F)c3c(N)ncnc31)C2 (stereo not drawn) [Ex. 64, 4-(1-(2-acryloyl-2-azabicyclo[2.2.1]heptan-6-yl)-4-amino-1H-pyrazolo[3,4-d]pyrimidin-3-yl)-3-fluoro-N-(pyridin-2-yl)benzamide]
6 | 235 | 181.2 | 1.3 | C=CC(=O)N1C[C@@H]2C[C@@H]1[C@@H](n1nc(-c3ccc(C(=O)Nc4ccccn4)cc3)c3c(N)ncnc31)C2 [Ex. 69, 4-(1-((1R,4R,6S)-2-acryloyl-2-azabicyclo[2.2.1]heptan-6-yl)-4-amino-1H-pyrazolo[3,4-d]pyrimidin-3-yl)-N-(pyridin-2-yl)benzamide]
7 | 47.9 | 31.9 | 1.5 | C=CC(=O)N1C[C@@H]2C[C@H]1[C@@H](n1nc(-c3ccc(C(=O)Nc4cc(F)ccn4)cc3)c3c(N)ncnc31)C2 [Ex. 72, 4-(1-((1S,4R,6S)-2-acryloyl-2-azabicyclo[2.2.1]heptan-6-yl)-4-amino-1H-pyrazolo[3,4-d]pyrimidin-3-yl)-N-(4-fluoropyridin-2-yl)benzamide]
8 | > 200 | 55.6 | 3.6 | N#CC(=CC1CC1)C(=O)N1C[C@@H]2C[C@@H]1[C@@H](n1nc(-c3ccc(C(=O)Nc4ccccn4)cc3F)c3c(N)ncnc31)C2 [Ex. 82, 4-(4-amino-1-((1R,4R,6S)-2-(2-cyano-3-cyclopropylacryloyl)-2-azabicyclo[2.2.1]heptan-6-yl)-1H-pyrazolo[3,4-d]pyrimidin-3-yl)-3-fluoro-N-(pyridin-2-yl)benzamide]

The remaining lines, values behind:

Row | Structure (SMILES) | IC50 (ITK) [nM] | Selectivity (based on IC50) (ITK) | IC50 (BTK) [nM]
9 | C#CC(=O)N1CC2CC1C(n1nc(-c3ccc(C(=O)Nc4ccccc4)cc3)c3c(N)ncnc31)C2 (stereo not drawn) [Ex. 17, 4-(4-amino-1-(2-propioloyl-2-azabicyclo[2.2.1]heptan-6-yl)-1H-pyrazolo[3,4-d]pyrimidin-3-yl)-N-phenylbenzamide] | > 1000 | >212.8 | 4.7
10 | C=CC(=O)N1CC2CC1C(n1nc(-c3ccc(S(=O)(=O)c4ccccc4)cc3)c3c(N)ncnc31)C2 (stereo not drawn) [Ex. 32, 1-(6-(4-amino-3-(4-(phenylsulfonyl)phenyl)-1H-pyrazolo[3,4-d]pyrimidin-1-yl)-2-azabicyclo[2.2.1]heptan-2-yl)prop-2-en-1-one] | > 1000 | >250 | 4
11 | C=CC(=O)N1CC2CC1C(n1nc(-c3ccc(Oc4ccccc4)cc3F)c3c(N)ncnc31)C2 (stereo not drawn) [Ex. 35, 1-(6-(4-amino-3-(2-fluoro-4-phenoxyphenyl)-1H-pyrazolo[3,4-d]pyrimidin-1-yl)-2-azabicyclo[2.2.1]heptan-2-yl)prop-2-en-1-one] | 132 | 60.0 | 2.2
12 | C=CC(=O)N1CC2CC1C(n1nc(-c3ccc(S(=O)(=O)Nc4ccccc4)cc3)c3c(N)ncnc31)C2 (stereo not drawn) [Ex. 54, 4-(1-(2-acryloyl-2-azabicyclo[2.2.1]heptan-6-yl)-4-amino-1H-pyrazolo[3,4-d]pyrimidin-3-yl)-N-phenylbenzenesulfonamide] | > 1000 | >454.5 | 2.2
13 | N#CC(=CC1CC1)C(=O)N1C[C@H]2CC(n3nc(-c4ccc(C(=O)Nc5ccccn5)cc4)c4c(N)ncnc43)[C@H]1C2 (stereo partly drawn) [Ex. 75, 4-(4-amino-1-((1R,4R)-2-(2-cyano-3-cyclopropylacryloyl)-2-azabicyclo[2.2.1]heptan-6-yl)-1H-pyrazolo[3,4-d]pyrimidin-3-yl)-N-(pyridin-2-yl)benzamide] | 305 | 76.2 | 4
14 | C#CC(=O)N1CC2CC1C(n1nc(-c3ccc(Oc4ccccc4)cc3)c3c(N)ncnc31)C2 (stereo not drawn) [Ex. 2, 1-(6-(4-amino-3-(4-phenoxyphenyl)-1H-pyrazolo[3,4-d]pyrimidin-1-yl)-2-azabicyclo[2.2.1]heptan-2-yl)prop-2-yn-1-one] | 26.3 | 32.9 | 0.8
15 | C=CC(=O)N1CC2CC1C(n1nc(-c3ccc(Sc4ccccc4)cc3)c3c(N)ncnc31)C2 (stereo not drawn) [Ex. 33, 1-(6-(4-amino-3-(4-(phenylthio)phenyl)-1H-pyrazolo[3,4-d]pyrimidin-1-yl)-2-azabicyclo[2.2.1]heptan-2-yl)prop-2-en-1-one] | > 1000 | >303.0 | 3.3
16 | N#CC(=CC1CC1)C(=O)N1C[C@@H]2C[C@@H]1[C@@H](n1nc(-c3ccc(C(=O)Nc4cc(F)ccn4)cc3F)c3c(N)ncnc31)C2 [Ex. 83, 4-(4-amino-1-((1R,4R,6S)-2-(2-cyano-3-cyclopropylacryloyl)-2-azabicyclo[2.2.1]heptan-6-yl)-1H-pyrazolo[3,4-d]pyrimidin-3-yl)-3-fluoro-N-(4-fluoropyridin-2-yl)benzamide] | 229 | 81.7 | 2.8
17 | C#CC(=O)N1CC2CC1C(n1nc(-c3ccc(C(=O)Nc4ccccn4)cc3)c3c(N)ncnc31)C2 (stereo not drawn) [Ex. 4, 4-(4-amino-1-(2-propioloyl-2-azabicyclo[2.2.1]heptan-6-yl)-1H-pyrazolo[3,4-d]pyrimidin-3-yl)-N-(pyridin-2-yl)benzamide] | 104 | 37.1 | 2.8
18 | C=CC(=O)N1CC2CC1C(n1nc(-c3ccc(C(=O)Nc4cc(C#N)ccn4)cc3)c3c(N)ncnc31)C2 (stereo not drawn) [Ex. 71, 4-(1-(2-acryloyl-2-azabicyclo[2.2.1]heptan-6-yl)-4-amino-1H-pyrazolo[3,4-d]pyrimidin-3-yl)-N-(4-cyanopyridin-2-yl)benzamide] | 133 | 147.7 | 0.9
19 | C=CC(=O)N1CC2CC1C(n1nc(-c3ccc(Oc4cccc(C(F)(F)F)c4)cc3)c3c(N)ncnc31)C2 (stereo not drawn) [Ex. 43, 1-(6-(4-amino-3-(4-(3-(trifluoromethyl)phenoxy)phenyl)-1H-pyrazolo[3,4-d]pyrimidin-1-yl)-2-azabicyclo[2.2.1]heptan-2-yl)prop-2-en-1-one] | 268 | 86.4 | 3.1
20 | C=CC(=O)N1CC2CC1C(n1nc(-c3ccc(C(=O)Nc4cccc(Cl)c4)cc3)c3c(N)ncnc31)C2 (stereo not drawn) [Ex. 48, 4-(1-(2-acryloyl-2-azabicyclo[2.2.1]heptan-6-yl)-4-amino-1H-pyrazolo[3,4-d]pyrimidin-3-yl)-N-(3-chlorophenyl)benzamide] | 401 | 85.3 | 4.7
21 | C=CC(=O)N1CC2CC1C(n1nc(-c3ccc(Oc4cccc(F)c4)cc3)c3c(N)ncnc31)C2 (stereo not drawn) [Ex. 34, 1-(6-(4-amino-3-(4-(3-fluorophenoxy)phenyl)-1H-pyrazolo[3,4-d]pyrimidin-1-yl)-2-azabicyclo[2.2.1]heptan-2-yl)prop-2-en-1-one] | 308 | 69.9 | 4.4
22 | C=CC(=O)N1CC2CC1C(n1nc(-c3ccc(Oc4cccc(OC)c4)cc3)c3c(N)ncnc31)C2 (stereo not drawn) [Ex. 41, 1-(6-(4-amino-3-(4-(3-methoxyphenoxy)phenyl)-1H-pyrazolo[3,4-d]pyrimidin-1-yl)-2-azabicyclo[2.2.1]heptan-2-yl)prop-2-en-1-one] | > 1000 | >222.2 | 4.5
